One experiment has as its system rat papillary muscle. The experiment in a line: Isometric tension (electrically stimulated twitches) in papillary muscle. In kind it is cell-based. Particulars: 10 to 100 μM; not significant. On the procedure: (§1) Once the experiments have been carried out, the findings were subject to statistical analyses being expressed in average ±SEM as a percentage of the control value, and graphs were drawn up using the Sigma Plot 5.0 program to represent the data obtained. For the statistical analysis of the effects on the different muscle tissues, the difference was assessed among the concentrations of the same derivative, using the “t” Student test. In order to ascertain the difference among the derivatives, the one-way ANOVA test was used. The differences were considered as significant for p<0.05. The Cl50 was expressed as an average ±SEM of the values obtained for each experiment through non-linear regression based on the y=yo+ae^−bx equation.
(§2) After anesthesia with ethyl ether, male Wistar rats weighing between 240-280 grams were sacrificed through cervical dislocation. The heart was removed rapidly and the papillary muscle and the ventricular bundles were dissected in Tyrode's solution, whose composition is given in Table 2 below, at room temperature. The muscles were placed in vertical chambers with a capacity of 10 mL and fixed at their extremities: the lower portion to a hook located in the stimulation electrode fixation rod and the upper portion connected to a power transducer (Grass FT03) for recording the muscle twitches.
(§3) The muscles were stimulated electrically with supra-maximum voltage (50-60 V) through a stimulator (Grass S88) at a frequency of 1.0 Hz. The signals captured by the transducer were amplified (Cyberamp 380, Axon Instruments) and the isometric tension was digitized (Digidata 1322A, Axon Instruments) and stored on a computer. The screening and analysis of the experiment was handled through the Axoscope 8.0 program (Axon Instruments) (Sudo & cols., 2001). The chamber solution was bubbled continuously with a carbogenic mixture (95% O2/5% CO2) and kept at a temperature of 37° C.
(§4) After the stabilization of the muscle twitches (approximately 30 min) the records were carried out in the absence (control) and presence of rising concentrations (10 to 100 μM) of the different L294 analogs, diluted in DMSO. The records were carried out in pairs (two papillary and two ventricle) thus allowing the control experiments to be carried out in one of the pairs, meaning with rising quantities of DMSO equivalent to those used to dilute the substances. The reversibility of the effect of the substances was investigated at the end of each experiment, noting the recovery of the muscle twitches after bathing the preparation with Tyrode's solution.

Experiment [1] deals with left ventricle bundles of a rat heart. In words: Isometric tension in ventricular bundles. The class given is cell-based. Here is the method: as §1, §2, §3, §4
For experiment [2], the system named is aorta rings with no preserved endothelium. In words: Phenylephrine-induced contracture in aorta rings without endothelium. In kind it is cell-based, rat. To be noted: for IC50: Rattus norvegicus, phenylephrine 10 μM, without endothelium, six experiments, read-out: CI50 (MM) Average ± SEM. On the procedure:
as §1
(§5) Male Wistar rats weighing between 240-280 grams were sacrificed through dislocation of the cervical column under anesthesia using ethyl ether. The aorta artery was removed and transferred to a Petri dish containing modified Tyrode's solution whose composition is described in Table 3 below, where the vessel was cleaned and the connective tissue was removed. According to the scheduled Experiment Protocol, the vascular endothelium was removed mechanically with the assistance of a polyethylene rod. The artery was divided into rings with a width of 2-3 mm. Two hooks were placed in the wall of the vessel in order to record the tension generated by the muscle in a transversal direction. To do so, one of the hooks was tied to a fixed point in the chamber and the other to a power transducer (FT 03) for recording the isometric tension. The tension generated by the muscle was transformed into a digitized electric signal (Digidata 1322A) and stored in a computer for subsequent analysis using the Axoscope 8.0 program (Axon Instruments, Inc). The chamber was filled with Krebs solution, oxygenated and kept at a temperature of 37° C.
(§6) After stabilizing the preparation, approximately 120 minutes, the Experiment Protocol began. Initially, in order to identify the presence or absence of the vascular endothelium, the preparation was exposed to phenylephrine (10 μM) and when the contracture in response to this substance was stabilized, acetylcholine (10 μM) was added to the nutrient solution. Relaxation of over 80% in response to the acetylcholine indicated the full integrity of the endothelium and relaxation of less than 10% indicated the absence of endothelium. The tissues in which the relaxation intensity fell between >10% and <80% were discarded. In order to investigate the vasodilator effect of the different L294 analogs, they were added to the experiment chambers in rising concentration after the contracture stabilization of the vessel induced by phenylephrine. The tension registered after treatment with each of the L294 analog concentrations was normalized as a function of the amplitude of the contracture triggered by phenylephrine. For the purpose of comparing the potency of some of the L294 analogs, the Cl50 was determined for each experiment using the y=yo+ae^−bx equation and their mean was used for the statistical analysis.
The importance of the presence of vascular endothelium in the vasodilatory action of the L294 analogs was assessed in experiments in which these cells were removed mechanically. […] When the findings of the experiments without the endothelium were analyzed as a whole, the absence of the L790 effect was confirmed. […] The maximum relaxation caused by the L787 and L789 analogs was less than 50% of the control, and the other analogs caused relaxation in the following decreasing order of efficacy: L785>L788>L786. Once again, attention is drawn to the marked efficiency of the L785 and L788 analogs.

For experiment [3], the system named is rat aorta rings with no endothelium. The experiment in a line: KCl-induced contracture in aorta rings without endothelium. In kind it is cell-based. Particulars: KCl 40 mM; for IC50: Rattus norvegicus, without endothelium, six experiments, read-out: CI50 (μM) Average ± SEM. Here is the method:
as §1, §5
as §6, with “[…] […]” for “In order to investigate the vasodilator effect of the different L294 analogs, they were added to the experiment chambers in rising concentration after the contracture stabilization of the vessel induced by phenylephrine. The tension registered after treatment with each of the L294 analog concentrations was normalized as a function of the amplitude of the contracture triggered by phenylephrine.”

Molecules are shown by their SMILES.

This is an account of results in patent publication US20080275105A1, “Selective Muscle Relaxant and Pharmaceutical Compositions” (UNIVERSIDADE FEDERAL DO RIO DE JANEIROUFRJ, priority 2004, published 2008).

Consider `CN(/N=C/c1cccs1)C(=O)c1ccc2c(c1)OCO2` [L785, 1,3-Benzodioxol-5-carboxylic acid, N-methyl-N′-[1-thiophene-2-yl-meth-(E)-ylidene]-hydrazide], for which the “maximum alterations to the papillary muscle twitches” value with rat papillary muscle is on record as 86.5±4.0 % of the control. The “muscular response in ventricular bundles” value in experiment [1] (concentration not given, alterations not greater than 10%) is recorded as 96.5±3.8 % of the control. For the same compound, in experiment [2] (100 μM, result in words), the “relaxation of phenylephrine contracture, without endothelium” value is listed as “relaxation was almost total”. In addition, the IC50 in experiment [2] is 18.5 ± 3.6 µM; in experiment [3], 40.5 ± 9.5 µM. The “reversal of the contracture caused by K+, without endothelium” value in experiment [3] (highest concentration 200 μM, result in words) is “unable to completely reverse the contracture”.

On to `O=C(c1ccc2c(c1)OCO2)N(Cc1ccccc1)/N=C/c1cccs1` [L786, 1,3-Benzodioxol-5-carboxylic acid, N-benzyl-N′-[1-thiophene-2-yl-meth-(E)-ylidene]-hydrazide], for which the “muscle twitches / contractility in ventricular bundles” value in experiment [1] (100 μM) was 79.9±10.6 % of the control. Also, the IC50 was 86.2 ± 7.1 µM in experiment [2] and 151 ± 7.6 µM in experiment [3].
